According to US20050148631A1, “Amino heterocyclyl inhibitors of 11-beta-hydroxy steroid dehydrogenase type 1” (AGOURON PHARMACEUTICALS, INC., priority 2003, published 2005):
Where two headings read alike, the source gives them in different places.

Molecular target: 11β-hsd-1 enzyme (Homo sapiens, UniProt P28845)
Test: 11β-hsd-1 enzyme assay, percentage of inhibition (3H-cortisone to cortisol, radio-HPLC)
Format: biochemical
Conditions: for inhibition at 0.1 µM: read-out: % inh @ 0.1 uM

Chain of 11β-hsd-1 enzyme (P28845 whole entry, species assumed): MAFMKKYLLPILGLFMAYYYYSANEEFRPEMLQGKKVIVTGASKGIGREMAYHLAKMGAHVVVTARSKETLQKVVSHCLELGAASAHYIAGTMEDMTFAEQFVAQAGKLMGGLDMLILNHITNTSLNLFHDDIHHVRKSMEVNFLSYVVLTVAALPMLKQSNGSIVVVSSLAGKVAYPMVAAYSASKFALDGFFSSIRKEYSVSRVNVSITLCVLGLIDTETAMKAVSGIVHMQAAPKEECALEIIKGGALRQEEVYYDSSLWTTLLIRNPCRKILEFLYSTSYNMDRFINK

CC(=O)Nc1nc(C)c(S(=O)(=O)Nc2cc(C)cc(C)n2)s1 [Example 100]
inhibition at 0.1 µM (0.1 uM): 19.2%

Cc1cccc(NS(=O)(=O)c2ccc(-c3ccccc3Cl)cc2)n1 [Example 125]
inhibition at 0.1 µM (0.1 uM): 87.8%

COC(=O)CCc1ccc(NS(=O)(=O)c2cccc(Cl)c2C)nc1 [Example 3]
inhibition at 0.1 µM (0.1 uM): 19.6%

Cc1cccc(NS(=O)(=O)c2ccc(-n3cccn3)cc2)n1 [Example 92]
inhibition at 0.1 µM (0.1 uM): 29.8%

Cc1cccc(NS(=O)(=O)Cc2cccc(Cl)c2)n1 [Example 67]
inhibition at 0.1 µM (0.1 uM): 49.6%

Cc1cccc(NS(=O)(=O)c2ccc(-c3ccc(F)cc3C)c(C)c2)n1 [Example 242]
inhibition at 0.1 µM (compound at 0.1 uM): 61%

Cc1c(Cl)cccc1S(=O)(=O)Nc1cccc(CC(=O)N(C)C(C)C)n1 [Example 30]
inhibition at 0.1 µM (0.1 uM): 15.9%

Cc1cccc(N(CCO)S(=O)(=O)c2ccc(-c3ccc(C#N)cc3)cc2)n1 [Example 266, 4′-Cyano-biphenyl-4-sulfonic acid (2-hydroxy-ethyl)-(6-methyl-pyridin-2-yl)-amide]
inhibition at 0.1 µM (compound at 0.1 uM): 9.6%

Cc1cccc(NS(=O)(=O)c2ccc(-c3ccc4c(c3)OCO4)cc2)n1 [Example 138]
inhibition at 0.1 µM (0.1 uM): 91.2%

Cc1cccc(NS(=O)(=O)N2CC(Oc3ccc(F)cc3)C2)n1 [Example 313]
inhibition at 0.1 µM (compound at 0.1 uM): 27.2%

Cc1c(Cl)cccc1S(=O)(=O)Nc1cccc(CC(=O)N(CCC#N)C2CC2)n1 [Example 29]
inhibition at 0.1 µM (0.1 uM): 10.9%

Cc1cccc(NS(=O)(=O)c2ccc(/C=C/c3ccccc3)cc2)n1 [Example 151]
inhibition at 0.1 µM (0.1 uM): 59.8%

Cc1cccc(NS(=O)(=O)c2ccc(-c3cccc(C#N)c3)c(C)c2)n1 [Example 220]
inhibition at 0.1 µM (compound at 0.1 uM): 67%

Cc1cc(C)nc(NS(=O)(=O)c2ccc(C(F)(F)F)cc2)c1 [Example 45]
% inh @ 0.1 uM (0.1 uM): 35%

Cc1cccc(NS(=O)(=O)c2ccc(-c3ccc(F)cc3F)cc2)n1 [Example 142]
inhibition at 0.1 µM (0.1 uM): 84.5%

Cc1cccc(NS(=O)(=O)c2ccc(-c3ccccc3C)cc2)n1 [Example 126]
inhibition at 0.1 µM (0.1 uM): 77.6%

Cc1cccc(NS(=O)(=O)c2ccccc2C(F)(F)F)n1 [Example 54]
inhibition at 0.1 µM (0.1 uM): 1%

Cc1cccc(NS(=O)(=O)c2ccc(-c3ccc(C(N)=O)cc3)cc2)n1 [Example 262, 4′-(6-Methyl-pyridin-2-ylsulfamoyl)-biphenyl-4-carboxylic acid amide]
inhibition at 0.1 µM (compound at 0.1 uM): 45.7%

Cc1cccc(NS(=O)(=O)c2ccc(-c3cccc(COc4ccccc4)c3)cc2)n1 [Example 155]
inhibition at 0.1 µM (0.1 uM): 83.3%

Cc1cccc(NS(=O)(=O)N2CCN3CCC[C@H]3C2)n1 [Example 302]
inhibition at 0.1 µM (compound at 0.1 uM): 18.1%

Cc1c(Cl)cccc1S(=O)(=O)Nc1cccc(CCO)n1 [Example 114, 3-Chloro-N-[6-(2-hydroxy-ethyl)-pyridin-2-yl]-2-methyl-benzenesulfonamide]
inhibition at 0.1 µM (0.1 uM): 11.3%

Cc1cccc(NS(=O)(=O)c2cccc3ccccc23)n1 [Example 51]
inhibition at 0.1 µM (0.1 uM): 10.2%

Cc1cccc(NS(=O)(=O)c2ccc(-c3ccc(CC(C)C)cc3)c(C)c2)n1 [Example 248]
inhibition at 0.1 µM (compound at 0.1 uM): 57%

Cc1cccc(NS(=O)(=O)c2ccc(-c3ccc(S(C)(=O)=O)cc3)c(C)c2)n1 [Example 234]
inhibition at 0.1 µM (compound at 0.1 uM): 57%

COc1ccc(S(=O)(=O)Nc2cccc(C)n2)cc1 [Example 81]
inhibition at 0.1 µM (0.1 uM): 23.4%

Cc1cc(C)nc(NS(=O)(=O)c2cccc(Cl)c2C)n1 [Example 58]
inhibition at 0.1 µM (0.1 uM): 4%

O=S(=O)(Nc1ccc2nc[nH]c2c1)c1ccc(-c2ccc(F)cc2)cc1 [Example 60]
inhibition at 0.1 µM (0.1 uM): 31.9%

Cc1c(Cl)cccc1S(=O)(=O)Nc1cccc(CC(=O)O)n1 [Example 26, [6-(3-Chloro-2-methyl-benzenesulfonylamino)-pyridin-2-yl]-acetic acid]
inhibition at 0.1 µM (0.1 uM): 25.2%

Cc1cccc(NS(=O)(=O)c2ccc(-c3ccc(OCc4ccccc4)cc3)cc2)n1 [Example 159]
inhibition at 0.1 µM (0.1 uM): 90.4%

Cc1cccc(NS(=O)(=O)c2cccc(C(F)(F)F)c2)n1 [Example 50]
inhibition at 0.1 µM (0.1 uM): 10.1%

Cc1c(Cl)cccc1S(=O)(=O)Nc1cccc(CC(=O)N2CCC(F)(F)CC2)n1 [Example 32]
inhibition at 0.1 µM (0.1 uM): 20.4%

Cc1cccc(NS(=O)(=O)c2ccc(-c3ncccn3)nc2)n1 [Example 261]
inhibition at 0.1 µM (compound at 0.1 uM): 2.6%

Cc1c(Cl)cccc1S(=O)(=O)Nc1cccc(CC(=O)N(C)C)n1 [Example 31]
inhibition at 0.1 µM (0.1 uM): 11.3%

O=S(=O)(Nc1ccc2ccccc2n1)c1ccc(-c2ccccn2)cc1 [Example 287, 4-Pyridin-2-yl-N-quinolin-2-yl-benzenesulfonamide]
inhibition at 0.1 µM (compound at 0.1 uM): 67.1%

O=S(=O)(Nc1cccc(CN2CCOCC2)n1)c1ccc(-c2ccccc2)cc1 [Example 64]
inhibition at 0.1 µM (0.1 uM): 8.9%

Cc1ccc(S(=O)(=O)Nc2cccc(C)n2)cc1 [Example 49]
inhibition at 0.1 µM (0.1 uM): 82.6%

Cc1cccc(NS(=O)(=O)c2cnn(-c3ccccc3)c2C)n1 [Example 99]
inhibition at 0.1 µM (0.1 uM): 15%

Cc1cccc(NS(=O)(=O)c2ccc(-c3cccc(Cl)c3Cl)c(C)c2)n1 [Example 237]
inhibition at 0.1 µM (compound at 0.1 uM): 58%

N#Cc1ccc(-c2ccc(S(=O)(=O)Nc3cc(O)c4ccccc4n3)cc2)cc1 [Example 105]
inhibition at 0.1 µM (0.1 uM): 16.9%

Cc1cccc(NS(=O)(=O)c2ccc(-c3ccc(F)c(Cl)c3)cc2)n1 [Example 123]
inhibition at 0.1 µM (0.1 uM): 89.9%

Cc1cc(N)nc(NS(=O)(=O)c2ccc(-c3ccc(C#N)cc3)cc2)c1 [Example 113, 4′-Cyano-biphenyl-4-sulfonic acid (6-amino-4-methyl-pyridin-2-yl)-amide]
inhibition at 0.1 µM (0.1 uM): 100%

Cc1c(Cl)cccc1S(=O)(=O)Nc1cccc(CC(=O)N2CCN(C)CC2)n1 [Example 11]
inhibition at 0.1 µM: 8.05%

Cc1cccc(NS(=O)(=O)c2ccc(-c3cc(Cl)cc(Cl)c3)cc2)n1 [Example 131]
inhibition at 0.1 µM (0.1 uM): 100%

Cc1cccc(NS(=O)(=O)c2ccc(-c3ccc4ccccc4c3)cc2)n1 [Example 137]
inhibition at 0.1 µM (0.1 uM): 79%

Cc1c(Cl)cccc1S(=O)(=O)Nc1cccc(CC(=O)N2CCCC2)n1 [Example 17]
inhibition at 0.1 µM (0.1 uM): 11.4%

Cc1c(Cl)cccc1S(=O)(=O)Nc1cccc(CC(=O)N2CCSCC2)n1 [Example 10]
inhibition at 0.1 µM (0.1 uM): 38.7%

Cc1c(Cl)cccc1S(=O)(=O)Nc1cccc(CC(=O)N2CCN(Cc3ccccc3)CC2)n1 [Example 12]
inhibition at 0.1 µM: 21.5%

CCOc1cccc(-c2ccc(S(=O)(=O)Nc3cccc(C)n3)cc2)c1 [Example 121]
inhibition at 0.1 µM (0.1 uM): 61.4%

COc1ccc(C)nc1NS(=O)(=O)c1ccc(C(F)(F)F)cc1 [Example 89]
inhibition at 0.1 µM (0.1 uM): 3.7%

Cc1cccc(NS(=O)(=O)c2c(Cl)nc3sccn23)n1 [Example 80]
inhibition at 0.1 µM (0.1 uM): 8%

Cc1cccc(NS(=O)(=O)N2CCC(C#N)(c3ccccc3)CC2)n1 [Example 305]
inhibition at 0.1 µM (compound at 0.1 uM): 1.1%

CCc1ccc(-c2ccc(S(=O)(=O)Nc3cccc(C)n3)cc2C)cc1 [Example 235]
inhibition at 0.1 µM (compound at 0.1 uM): 87%

Cc1cccc(NS(=O)(=O)c2ccc(-c3ccc(F)c(C)c3)cc2)n1 [Example 150]
inhibition at 0.1 µM (0.1 uM): 79.3%

Cc1cccc(NS(=O)(=O)c2ccc(-c3cc(F)cc(F)c3)cc2)n1 [Example 145]
inhibition at 0.1 µM (0.1 uM): 80.6%

Cc1cccc(NS(=O)(=O)c2ccc(-c3ccc(OC(F)(F)F)cc3)cc2)n1 [Example 144]
inhibition at 0.1 µM (0.1 uM): 86.8%

C=CCN(C)C(=O)Cc1cccc(NS(=O)(=O)c2cccc(Cl)c2C)n1 [Example 16]
inhibition at 0.1 µM (0.1 uM): 10.9%

Cc1cccc(NS(=O)(=O)N2CCC(c3ccncc3)C2)n1 (stereo not shown) [Example 297, 3-Pyridin-4-yl-pyrrolidine-1-sulfonic acid (6-methyl-pyridin-2-yl)-amide]
inhibition at 0.1 µM (compound at 0.1 uM): 3.4%

CCN(CC)C(=O)CCc1ccc(NS(=O)(=O)c2cccc(Cl)c2C)nc1 [Example 18]
inhibition at 0.1 µM (0.1 uM): 34.6%

Cc1c(Cl)cccc1S(=O)(=O)Nc1cccc(NC(=O)C2CCCN2)n1 (stereo not shown) [Example 296, Pyrrolidine-2-carboxylic acid [6-(3-chloro-2-methyl-benzenesulfonylamino)-pyridin-2-yl]-amide]
inhibition at 0.1 µM (compound at 0.1 uM): 16%

Cc1c(Cl)cccc1S(=O)(=O)Nc1cccc(CO)n1 [Example 116]
inhibition at 0.1 µM (0.1 uM): 37.2%

Cc1cccc(NS(=O)(=O)Cc2cc(Cl)cc(Cl)c2)n1 [Example 75]
inhibition at 0.1 µM (0.1 uM): 19.2%

Cc1cccc(NS(=O)(=O)c2ccc(-c3cccc(OC(F)(F)F)c3)cc2)n1 [Example 153]
inhibition at 0.1 µM (0.1 uM): 75.3%

CC(=O)Nc1ccc(-c2ccc(S(=O)(=O)Nc3cccc(C)n3)cc2)cc1 [Example 149]
inhibition at 0.1 µM (0.1 uM): 20.4%

Cc1cccc(NS(=O)(=O)c2ccc(-c3ccc(F)c(F)c3)c(C)c2)n1 [Example 244]
inhibition at 0.1 µM (compound at 0.1 uM): 86%

Cc1cccc(NS(=O)(=O)c2ccc(-c3cn[nH]c3)cc2)n1 [Example 250]
inhibition at 0.1 µM (compound at 0.1 uM): 17%

Cc1cccc(NS(=O)(=O)c2ccc(-c3ccc(O)cc3)cc2)n1 [Example 252]
inhibition at 0.1 µM (compound at 0.1 uM): 44%

Cc1cccc(NS(=O)(=O)Cc2ccc(C(F)(F)F)cc2)n1 [Example 73]
inhibition at 0.1 µM (0.1 uM): 17.3%

Cc1cccc(NS(=O)(=O)c2ccc(-c3ccc(C(F)(F)F)cc3)cc2)n1 [Example 157]
inhibition at 0.1 µM (0.1 uM): 100%

CCOC(=O)Cc1cccc(NS(=O)(=O)c2ccc(C(F)(F)F)cc2)n1 [Example 5]
inhibition at 0.1 µM (0.1 uM): 0.3%

CCc1cccc(NS(=O)(=O)c2ccc(C(C)C)cc2)n1 [Example 76]
inhibition at 0.1 µM (0.1 uM): 15.6%

CCOc1ccccc1-c1ccc(S(=O)(=O)Nc2cccc(C)n2)c(C)c1 [Example 188]
inhibition at 0.1 µM (0.1 uM): 53%

Cc1cccc(NS(=O)(=O)c2ccc(-c3ccccn3)cc2)n1 [Example 259, N-(6-Methyl-pyridin-2-yl)-4-pyridin-2-yl-benzenesulfonamide trifuoroacetate]
inhibition at 0.1 µM (compound at 0.1 uM): 30%

COc1ccccc1-c1ccc(S(=O)(=O)Nc2cccc(C)n2)cc1 [Example 120]
inhibition at 0.1 µM (0.1 uM): 71.7%

Cc1cccc(NS(=O)(=O)c2ccc(-c3ccc(C(C)(C)C)cc3)cc2C)n1 [Example 175]
inhibition at 0.1 µM (0.1 uM): 59%

Cc1c(Cl)cccc1S(=O)(=O)Nc1cccc(CC(=O)NCc2ccc(C(F)(F)F)cc2)n1 [Example 13]
inhibition at 0.1 µM (0.1 uM): 9.1%

Cc1cccc(N(C)S(=O)(=O)c2ccc(-c3ccc(C#N)cc3)cc2)n1 [Example 110, 4′-Cyano-biphenyl-4-sulfonic acid methyl-(6-methyl-pyridin-2-yl)-amide]
inhibition at 0.1 µM (0.1 uM): 8.1%
